In patent US11420958B2, “Aryl and heteroaryl substituted indole compounds” (BRISTOL-MYERS SQUIBB COMPANY, priority 2017, dated 2022) one finds IC50 data, which are given here for 25 molecules.

What all share (assay type): cell-based
Assay [1] has as its target human TLR7 (Homo sapiens (Human), UniProt Q9NYK1). The assay can be described thus: TLR7 inhibition reporter assay (HEK-Blue, SEAP). Conditions: HEK-Blue cells overexpressing human TLR7, gardiquimod 7.5 μM stimulation. An outline of the steps:
(§1)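 HEK-Blue cells overexpressing the receptor carry a SEAP reporter under IFN-β minimal promoter with NF-κB/AP-1 sites. Compounds (0.05 nM–50 μM final) were preincubated 30 min at room temperature, then cells were stimulated with gardiquimod 7.5 μM (TLR7), R848 15.9 μM (TLR8) or ODN2006 5 nM (TLR9) for 22 h at 37 °C.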

In assay [2] the target is human TLR8 (Homo sapiens (Human), UniProt Q9NR97). The assay can be described thus: TLR8 inhibition reporter assay (HEK-Blue, SEAP). To be noted: HEK-Blue cells overexpressing human TLR8, R848 15.9 μM stimulation. Summed up: as §1
human TLR8, sequence (Q9NR97 27-1041): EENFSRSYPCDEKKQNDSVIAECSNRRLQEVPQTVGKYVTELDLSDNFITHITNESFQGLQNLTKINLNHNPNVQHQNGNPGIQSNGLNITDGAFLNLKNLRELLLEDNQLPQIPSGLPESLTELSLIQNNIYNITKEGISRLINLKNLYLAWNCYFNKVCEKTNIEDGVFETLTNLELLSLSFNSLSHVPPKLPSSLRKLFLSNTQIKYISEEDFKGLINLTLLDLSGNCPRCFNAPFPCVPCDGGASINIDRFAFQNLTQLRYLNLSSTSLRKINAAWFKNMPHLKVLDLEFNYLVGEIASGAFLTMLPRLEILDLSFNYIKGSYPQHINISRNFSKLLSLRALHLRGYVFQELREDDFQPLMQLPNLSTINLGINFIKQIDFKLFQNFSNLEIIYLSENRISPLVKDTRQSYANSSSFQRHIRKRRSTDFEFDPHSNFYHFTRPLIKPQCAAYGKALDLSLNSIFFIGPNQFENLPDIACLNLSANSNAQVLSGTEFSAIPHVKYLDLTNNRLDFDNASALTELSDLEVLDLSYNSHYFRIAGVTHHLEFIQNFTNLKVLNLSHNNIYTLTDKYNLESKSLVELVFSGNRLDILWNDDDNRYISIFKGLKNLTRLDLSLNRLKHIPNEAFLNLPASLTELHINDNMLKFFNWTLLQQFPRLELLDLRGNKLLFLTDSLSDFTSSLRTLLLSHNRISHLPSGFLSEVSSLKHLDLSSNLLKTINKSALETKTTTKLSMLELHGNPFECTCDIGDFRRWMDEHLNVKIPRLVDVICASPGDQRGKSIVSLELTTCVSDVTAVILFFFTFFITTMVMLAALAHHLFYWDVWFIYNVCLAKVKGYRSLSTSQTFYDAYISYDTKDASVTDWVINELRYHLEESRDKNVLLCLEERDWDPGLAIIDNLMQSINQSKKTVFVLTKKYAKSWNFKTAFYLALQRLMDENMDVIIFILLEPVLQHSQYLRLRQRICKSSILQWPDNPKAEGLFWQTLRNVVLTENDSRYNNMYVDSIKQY
A general note: A reporter such as luciferase makes a cellular process visible.

For assay [3], the target named is human TLR9 (Homo sapiens (Human), UniProt Q9NR96). Description: TLR9 inhibition reporter assay (HEK-Blue, SEAP). Conditions: HEK-Blue cells overexpressing human TLR9, ODN2006 5 nM stimulation. Summed up:
as §1

human TLR7, sequence (Q9NYK1 27-1049): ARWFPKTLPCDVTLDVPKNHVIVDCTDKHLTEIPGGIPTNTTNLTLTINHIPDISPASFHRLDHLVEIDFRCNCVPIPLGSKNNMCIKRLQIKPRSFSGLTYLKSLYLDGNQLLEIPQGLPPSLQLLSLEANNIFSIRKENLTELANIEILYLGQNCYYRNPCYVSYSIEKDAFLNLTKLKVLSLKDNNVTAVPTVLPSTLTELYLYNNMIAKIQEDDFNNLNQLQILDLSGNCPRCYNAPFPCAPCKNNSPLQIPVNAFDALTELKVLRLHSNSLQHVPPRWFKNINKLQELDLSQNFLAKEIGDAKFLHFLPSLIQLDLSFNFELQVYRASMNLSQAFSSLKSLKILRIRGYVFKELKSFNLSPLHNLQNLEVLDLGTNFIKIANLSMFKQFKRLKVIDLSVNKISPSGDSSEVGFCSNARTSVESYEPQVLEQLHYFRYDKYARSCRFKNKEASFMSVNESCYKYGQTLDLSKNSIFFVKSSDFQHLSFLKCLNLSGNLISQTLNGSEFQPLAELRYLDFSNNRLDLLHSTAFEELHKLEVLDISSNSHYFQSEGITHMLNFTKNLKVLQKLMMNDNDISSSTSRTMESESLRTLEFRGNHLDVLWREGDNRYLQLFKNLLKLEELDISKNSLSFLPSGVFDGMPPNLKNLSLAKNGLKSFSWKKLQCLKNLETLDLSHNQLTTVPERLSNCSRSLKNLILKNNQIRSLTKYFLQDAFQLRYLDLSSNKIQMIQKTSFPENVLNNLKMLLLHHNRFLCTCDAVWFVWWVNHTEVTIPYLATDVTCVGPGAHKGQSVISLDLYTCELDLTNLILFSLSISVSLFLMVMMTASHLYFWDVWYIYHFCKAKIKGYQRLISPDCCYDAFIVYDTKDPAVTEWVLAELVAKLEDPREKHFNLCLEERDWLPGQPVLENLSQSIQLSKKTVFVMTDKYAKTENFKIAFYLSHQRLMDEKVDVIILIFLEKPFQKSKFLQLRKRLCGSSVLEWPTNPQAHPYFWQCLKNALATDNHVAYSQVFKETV
human TLR9, sequence (Q9NR96 26-1032): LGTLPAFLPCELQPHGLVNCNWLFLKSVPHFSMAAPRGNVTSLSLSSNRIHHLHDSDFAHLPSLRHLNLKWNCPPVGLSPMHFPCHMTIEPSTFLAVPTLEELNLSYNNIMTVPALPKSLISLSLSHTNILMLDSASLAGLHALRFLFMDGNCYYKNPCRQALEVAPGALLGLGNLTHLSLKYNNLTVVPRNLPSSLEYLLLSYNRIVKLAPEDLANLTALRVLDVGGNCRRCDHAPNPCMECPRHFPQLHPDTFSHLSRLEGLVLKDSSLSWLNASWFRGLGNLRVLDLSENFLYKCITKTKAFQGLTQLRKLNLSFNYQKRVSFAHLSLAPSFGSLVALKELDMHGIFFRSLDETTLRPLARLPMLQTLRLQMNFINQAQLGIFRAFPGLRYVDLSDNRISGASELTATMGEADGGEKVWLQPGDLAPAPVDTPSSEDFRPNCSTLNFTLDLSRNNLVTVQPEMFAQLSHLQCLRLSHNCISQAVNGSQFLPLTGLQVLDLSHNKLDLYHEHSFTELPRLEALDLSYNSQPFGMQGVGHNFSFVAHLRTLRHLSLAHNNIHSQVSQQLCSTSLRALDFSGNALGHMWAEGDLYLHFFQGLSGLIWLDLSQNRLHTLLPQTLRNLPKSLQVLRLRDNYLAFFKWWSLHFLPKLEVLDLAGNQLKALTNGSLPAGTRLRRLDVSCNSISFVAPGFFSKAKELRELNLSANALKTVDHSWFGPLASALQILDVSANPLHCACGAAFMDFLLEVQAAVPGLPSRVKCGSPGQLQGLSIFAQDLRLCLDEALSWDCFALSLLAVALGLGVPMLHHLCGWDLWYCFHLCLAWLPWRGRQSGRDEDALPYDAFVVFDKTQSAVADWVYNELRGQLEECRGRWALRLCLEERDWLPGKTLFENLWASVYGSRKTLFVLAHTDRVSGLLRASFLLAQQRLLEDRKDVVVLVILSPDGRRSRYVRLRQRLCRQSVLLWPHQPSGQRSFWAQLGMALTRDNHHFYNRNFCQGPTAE

On to `Cc1cc(-c2[nH]c3ccc(-c4nc5c(s4)CNCC5)cc3c2C(C)C)cc(C)n1` [Example 308, 2-(2-(2,6-dimethylpyridin-4-yl)-3-isopropyl-1H-indol-5-yl)-4,5,6,7-tetrahydrothiazolo[5,4-c]pyridine], for which the IC50 (as a rule, the concentration that gives 50% inhibition) in assay [1] came to 2.6 nM; in assay [2], 0.5 nM; in assay [3], 365 nM.

As for `COc1ccc(-c2[nH]c3ccc(-c4ccc(OC5CCN(CC(C)C)CC5)cc4)cc3c2C(C)C)cc1OC` [Example 388, 2-(3,4-dimethoxyphenyl)-5-(4-((1-isobutylpiperidin-4-yl)oxy)phenyl)-3-isopropyl-1H-indole], the IC50 in assay [1] was 636 nM; in assay [2], 349 nM; in assay [3], over 50000 nM.

`Cc1cc(-c2[nH]c3ccc(-c4nnc(C5CCCN(C)C5)o4)cc3c2C(C)C)ccn1` (stereo not drawn) [Example 159, 2-(3-isopropyl-2-(2-methylpyridin-4-yl)-1H-indol-5-yl)-5-(1-methylpiperidin-3-yl)-1,3,4-oxadiazole]: the IC50 is 24 nM in assay [1], 1.8 nM in assay [2] and 1230 nM in assay [3].

For the molecule `Cc1cc(-c2[nH]c3ccc(-c4cn5c(n4)CNCC5)cc3c2C(C)C)cc(C)n1` [Example 354, 2-(2-(2,6-dimethylpyridin-4-yl)-3-isopropyl-1H-indol-5-yl)-5,6,7,8-tetrahydroimidazo[1,2-a]pyrazine], the IC50 stood at 48 nM in assay [1], 2.8 nM in assay [2] and 2100 nM in assay [3].

Consider `CC(C)c1c(-c2ccc3nccn3c2)[nH]c2ccc(-c3nnc(C(=O)NC4CCN(C(C)C)CC4)o3)cc12` [Example 241, 5-(2-(imidazo[1,2-a]pyridin-6-yl)-3-isopropyl-1H-indol-5-yl)-N-(1-isopropylpiperidin-4-yl)-1,3,4-oxadiazole-2-carboxamide], for which the IC50 in assay [1] is 43 nM; in assay [2] it was 43 nM; in assay [3], 306 nM.

For `Cc1cc(-c2[nH]c3ccc(-c4ccc(NC(=O)[C@@H]5CCNC5)nc4)cc3c2C(C)C)ccn1` [Example 209, (R)—N-(5-(3-isopropyl-2-(2-methylpyridin-4-yl)-1H-indol-5-yl)pyridin-2-yl)pyrrolidine-3-carboxamide], the IC50 in assay [1] came out at 169 nM; in assay [2] it was 67 nM; in assay [3] it was 828 nM.

For `CCc1c(-c2ccc(OC)c(OC)c2)[nH]c2ccc(-c3nnc(C(=O)N(C)C)o3)cc12` [Example 38, 5-(2-(3,4-dimethoxyphenyl)-3-ethyl-1H-indol-5-yl)-N,N-dimethyl-1,3,4-oxadiazole-2-carboxamide], the IC50 in assay [1] was 1030 nM; in assay [2], 151 nM; in assay [3] it was over 50000 nM.

`Cc1cc(-c2[nH]c3ccc(-c4ccc(NC(=O)C(F)(F)F)nc4)cc3c2C(C)C)ccn1` [Example 295, 2,2,2-trifluoro-N-(5-(3-isopropyl-2-(2-methylpyridin-4-yl)-1H-indol-5-yl)pyridin-2-yl)acetamide]: the IC50 in assay [1] stood at 11 nM; in assay [2], 2.7 nM; in assay [3] it was 17900 nM.

On to `CC(C)c1c(-c2ccnc3[nH]ncc23)[nH]c2ccc(-c3nnc(CN(C)C(C)C)o3)cc12` [Example 154, N-((5-(3-isopropyl-2-(1H-pyrazolo[3,4-b]pyridin-4-yl)-1H-indol-5-yl)-1,3,4-oxadiazol-2-yl)methyl)-N-methylpropan-2-amine], for which the IC50 is 1410 nM in assay [1], 31 nM in assay [2] and over 50000 nM in assay [3].

On to `Cc1cc(-c2[nH]c3ccc(-c4nnc([C@@H]5CCCN5)o4)cc3c2C(C)C)ccn1` [Example 261, (S)-2-(3-isopropyl-2-(2-methylpyridin-4-yl)-1H-indol-5-yl)-5-(pyrrolidin-2-yl)-1,3,4-oxadiazole], for which the values for the IC50 in assay [1], in assay [2] and in assay [3] were 162 nM, 4.5 nM and 6280 nM, respectively.

In the case of `Cc1cc(-c2[nH]c3ccc(-c4ccc(NC(C)C)nc4)cc3c2C(C)C)ccn1` [Example 247, N-isopropyl-5-(3-isopropyl-2-(2-methylpyridin-4-yl)-1H-indol-5-yl)pyridin-2-amine], the IC50 in assay [1] was found to be 84 nM; in assay [2], 6.4 nM; in assay [3] it was 5540 nM.

Turning to `COc1ccc(-c2[nH]c3ccc(-c4ccc(NCCN5CCOCC5)cc4)cc3c2C(C)C)cc1OC` [Example 401, 4-(2-(3,4-dimethoxyphenyl)-3-isopropyl-1H-indol-5-yl)-N-(2-morpholinoethyl)aniline], the IC50 in assay [1] came out at 541 nM; in assay [2] it was 77 nM; in assay [3], 43300 nM.

For `Cc1cc(-c2[nH]c3ccc(-c4ccc(NC(=O)[C@H]5CCNC5)nc4)cc3c2C(C)C)ccn1` [Example 207, (S)—N-(5-(3-isopropyl-2-(2-methylpyridin-4-yl)-1H-indol-5-yl)pyridin-2-yl)pyrrolidine-3-carboxamide], the results for the IC50 in assay [1], in assay [2] and in assay [3] were 83 nM, 14 nM and 1650 nM, respectively.

As to `Cc1cc(-c2[nH]c3ccc(-c4ccc(N5CC(C)OC(C)C5)nc4)cc3c2C(C)C)cc(C)n1` (stereo not drawn) [Example 335, 4-(5-(2-(2,6-dimethylpyridin-4-yl)-3-isopropyl-1H-indol-5-yl)pyridin-2-yl)-2,6-dimethylmorpholine], the IC50 is 166 nM in assay [1], 106 nM in assay [2] and 38100 nM in assay [3].

As for `COc1ccc(-c2[nH]c3ccc(-c4cccc(C(=O)NCC#N)c4)cc3c2CC(F)(F)F)cc1OC` [Example 27, N-(cyanomethyl)-3-(2-(3,4-dimethoxyphenyl)-3-(2,2,2-trifluoroethyl)-1H-indol-5-yl)benzamide], the figures for the IC50 in assay [1], in assay [2] and in assay [3] were 744 nM, 82 nM and 41100 nM, respectively.

In the case of `Cc1cc(-c2[nH]c3ccc(-c4nnc([C@H]5CSCN5)o4)cc3c2C(C)C)ccn1` [Example 82, (S)-2-(3-isopropyl-2-(2-methylpyridin-4-yl)-1H-indol-5-yl)-5-(thiazolidin-4-yl)-1,3,4-oxadiazole], the results for the IC50 in assay [1], in assay [2] and in assay [3] were 596 nM, 96 nM and over 50000 nM, respectively.

In the case of `CNCCc1nnc(-c2ccc3[nH]c(-c4ccc5ncnn5c4)c(C(C)C)c3c2)o1` [Example 226, 2-(5-(2-([1,2,4]triazolo[1,5-a]pyridin-6-yl)-3-isopropyl-1H-indol-5-yl)-1,3,4-oxadiazol-2-yl)-N-methylethan-1-amine], the IC50 in assay [1] was 46 nM; in assay [2], 5.5 nM; in assay [3], 1080 nM.

Turning to `CC(=O)Nc1ccc(-c2ccc3[nH]c(-c4ccnc(C)c4)c(C(C)C)c3c2)cn1` [Example 256, N-(5-(3-isopropyl-2-(2-methylpyridin-4-yl)-1H-indol-5-yl)pyridin-2-yl)acetamide], the figures for the IC50 in assay [1], in assay [2] and in assay [3] were 99 nM, 15 nM and over 50000 nM, respectively.

In the case of `COc1ccc(-c2[nH]c3ccc(-c4nnc(C5CCN(CC(=O)N(C)C)CC5)o4)cc3c2CC(F)(F)F)cc1OC` [Example 83, 2-(4-(5-(2-(3,4-dimethoxyphenyl)-3-(2,2,2-trifluoroethyl)-1H-indol-5-yl)-1,3,4-oxadiazol-2-yl)piperidin-1-yl)-N,N-dimethylacetamide], the IC50 came to 158 nM in assay [1], 40 nM in assay [2] and 2550 nM in assay [3].

Consider `Cc1cc(-c2[nH]c3ccc(-c4nc(C(=O)NCC5CCCCN5)co4)cc3c2C(C)C)cc(C)n1` (stereo not drawn) [Example 287, 2-(2-(2,6-dimethylpyridin-4-yl)-3-isopropyl-1H-indol-5-yl)-N-(piperidin-2-ylmethyl)oxazole-4-carboxamide], for which the results for the IC50 in assay [1], in assay [2] and in assay [3] were 17 nM, 6.6 nM and 399 nM, respectively.

As to `COc1ccc(-c2[nH]c3ccc(-c4cnc(N5CCN(C(C)C)CC5)cc4C)cc3c2C(C)C)cc1OC` [Example 420, 2-(3,4-dimethoxyphenyl)-3-isopropyl-5-(6-(4-isopropylpiperazin-1-yl)-4-methylpyridin-3-yl)-1H-indole], the IC50 in assay [1] is 334 nM; in assay [2] it was 4.7 nM; in assay [3] it was 693 nM.

As for `COc1ccc(-c2[nH]c3ccc(-c4nnc(CN5CCN(C(C)=O)CC5)o4)cc3c2C(C)C)cc1OC` [Example 116, 1-(4-((5-(2-(3,4-dimethoxyphenyl)-3-isopropyl-1H-indol-5-yl)-1,3,4-oxadiazol-2-yl)methyl)piperazin-1-yl)ethan-1-one], the IC50 was 331 nM in assay [1], 395 nM in assay [2] and over 50000 nM in assay [3].

Regarding `Cc1cc(-c2[nH]c3ccc(-c4ccnc(C5CCNCC5)c4)cc3c2C(C)C)cc(C)n1` [Example 344, 2-(2,6-dimethylpyridin-4-yl)-3-isopropyl-5-(2-(piperidin-4-yl)pyridin-4-yl)-1H-indole], the IC50 stood at 5 nM in assay [1], 7.9 nM in assay [2] and 181 nM in assay [3].

`COc1ccc(-c2[nH]c3ccc(-c4cccc(C(=O)N5CCCC5C)c4)cc3c2CC(F)(F)F)cc1OC` (stereo not drawn) [Example 32, (3-(2-(3,4-dimethoxyphenyl)-3-(2,2,2-trifluoroethyl)-1H-indol-5-yl)phenyl)(2-methylpyrrolidin-1-yl)methanone]: the IC50 was 2620 nM in assay [1], 1110 nM in assay [2] and over 50000 nM in assay [3].

`CNc1nnc(-c2ccc3[nH]c(-c4ccnc(C)c4)c(C(C)C)c3c2)o1` [Example 346, 5-(3-isopropyl-2-(2-methylpyridin-4-yl)-1H-indol-5-yl)-N-methyl-1,3,4-oxadiazol-2-amine]: the results for the IC50 in assay [1], in assay [2] and in assay [3] were 158 nM, 32 nM and over 50000 nM, respectively.
